Assay results from patent publication US9427439B1, “Methods and compositions for recovery from stroke” (EIP Pharma, LLC, priority 2015, dated 2016).

How the values were obtained:
[1] = test system: cytokine production (TNF-α and IL-1β) in whole blood; details: inhibition of cytokine production (anti-inflammatory activity); cited from earlier work
[2] = tMCAO study: body weight, clinical signs, mortality; format: in vivo, rat
Experimental: Altogether 76 adult male Sprague Dawley rats, purchased from Harlan Laboratories, (Israel), and weighing 300-350 g were used for the experiment. Animals were housed at a standard temperature (20-24° C.) and in a light-controlled environment (12 hours light/12 hours dark) with ad libitum access to food and water.
(§1) Group 1M: 20 tMCAO animals treated twice-a-day with vehicle from Day 3 (day 1 being day of stroke surgery) to Day 42 (via PO gavage)
(§2) Group 2M: 22 tMCAO animals treated twice-a-day with VX-745 (1.5 mg/kg) from Day 3 (day 1 being day of stroke surgery) to Day 42 (via PO gavage)
(§3) Group 3M: 21 tMCAO animals treated twice-a-day with VX-745 (4.5 mg/kg) from Day 3 (day 1 being day of stroke surgery) to Day 42 (via PO gavage)
Animals were handled at a minimum for three days before the surgery. Baseline measures were taken before stroke was induced. Stroke surgery occurred on Day 1. On Day 2, 24 hours post-stroke surgery, Neuroscore testing was performed. Only animals reaching and exceeding Neuroscore criteria was included in the study. On Days 3-42, treatment with vehicle or VX-745 was administered twice a day for 40 days via PO (oral) gavage for all groups. Behavioral tests for all groups were conducted on weeks 4 and 6. Animals were sacrificed on Day 44 and brains were harvested.
Statistical analysis was performed when applicable by two-way ANOVA for repeated measures, followed by Bonferroni post-hoc tests for all the data presented in the results section (*p<0.05; **p<0.01; ***p<0.001).

[3] = test system: rat model of stroke (transient MCAO); assay: tMCAO rat stroke model: body swing test; format: in vivo
Experimental: as §1, §2, §3
(§4) Transient middle cerebral artery occlusion was performed according to the method described in R. Schmid-Elsaesser et al., Stroke, 29(10):2162-2170 (1998). The right Common Carotid Artery (CCA) was exposed through a midline neck incision and carefully dissected free from surrounding nerves and fascia—from its bifurcation to the base of the skull. The occipital artery branches of the ECA (External Carotid Artery) were then isolated, and these branches were dissected and coagulated. […]
The rat was held approximately one inch from the base of its tail. […] A swing was recorded whenever the rat moved its head out of the vertical axis to either side. Before attempting another swing, the rat had must return to the vertical position for the next swing to be counted. Twenty (20) total swings were counted. […] Body swing scores were expressed as a percentage of rightward over total swings. […]

cytokine signaling = details: cited from earlier work
[4] = treatment of rheumatoid arthritis; cited from earlier work
[5] = test system: IL-1β production and signaling; details: cited from earlier work
[6] = test system: rat model of stroke (transient MCAO); assay: tMCAO rat stroke model: forelimb placement test; format: in vivo; details: Groups 2M (1.5 mg/kg) and 3M (4.5 mg/kg), PO twice a day; Week 4 and Week 6
Experimental: as §1, §2, §3
as §4, with “coagulated. The ECA was dissected further distally and coagulated along with the terminal lingual and maxillary artery branches, which was then divided. The ICA (Internal Carotid Artery) was isolated and carefully separated from the adjacent vagus nerve, and the pterygopalatine artery was ligated close to its origin with a 5-0 nylon suture (SMI, Belgium).” for “coagulated.”

[7] = test system: rat model of stroke (transient MCAO); assay: tMCAO rat stroke model: stepping test; format: in vivo; details: Groups 2M (1.5 mg/kg) and 3M (4.5 mg/kg), PO twice a day; Week 4 up to Week 6
Experimental: as §1, §2, §3, §4
Animals were tested for forelimb akinesia in a stepping test (ST). The animal was held with its hind limbs fixed in one hand and the forelimb, not to be monitored, in the other, while the unrestrained fore-paw touches the table. The number of adjusting steps were counted while the animal was moved sideways along the table surface (85 cm during approximately five seconds), in the forehand & backhand direction for both forelimbs. […]

[8] = test system: rat model of stroke (transient MCAO); assay: tMCAO rat stroke model: Neuroscore (mNSS); format: in vivo; details: Groups 2M (1.5 mg/kg) and 3M (4.5 mg/kg), PO twice a day from Day 3 to Day 42
Experimental: as §1, §2, §3
as §4, with “coagulated. The ECA was dissected further distally and coagulated along with the terminal lingual and maxillary artery branches, which was then divided. The ICA (Internal Carotid Artery) was isolated and carefully separated from the adjacent vagus nerve, and the pterygopalatine artery was ligated close to its origin with a 5-0 nylon suture (SMI, Belgium).” for “coagulated.”

[9] = brain distribution in pre-clinical studies; format: in vivo
Excerpt: The inhibition of MAPK by VX-745 blocks the downstream synthesis of inflammatory cytokines TNF-α and IL-1β. […] VX-745 preferentially distributes to the brain with drug concentrations in the brain in pre-clinical studies being approximately two-fold higher than in the blood. Stroke

IL-1β = IL-1β ELISA of brain at termination of tMCAO study; format: in vivo, rat; details: right minus left hemisphere; Groups 2M and 3M versus 1M; n=18 per group
Excerpt: The brains of all animals were harvested on Day 44. Rats were sacrificed by CO2 inhalation. Brains were harvested from all animals in each group, divided to left and right hemisphere, weighed, and snap frozen.
Brains were harvested at study termination. Each brain was dissected into two hemispheres and each hemisphere was weighed and enclosed into tubes marked Left or Right. Each tube was immediately frozen in liquid nitrogen and stored at (−80)° C. The tissues were defrosted and homogenized in 1 ml/200 mg tissue of 20 mM Tris-HCL pH 7.4 containing a protease inhibitor cocktail (50 μl/ml). Samples were centrifuged at 10,000 g for 15 min at 4°. Clear supernatants were aliquoted (150 μl/aliquot) and stored at (−80)° C. until ELISA assays were performed. ELISA assay was executed according to kit instructions. Standards and samples were tested in duplicates.
Following study termination, animals were also tested for IL-1β brain levels using the ELISA system (see FIG. 8 for standard curves). The variability of the results was too large to allow definitive conclusions. All the results below the Lower Limit of Quantification (LLOQ) were assigned the LLOQ value of 5 pg/ml. Then, results for the uninjured left side were subtracted from the results of the right side. The distribution for individual rats is given in the figure below (n=18 in each of the study groups) (FIG. 9).

animal models of stroke = details: administered 24-hours after stroke; cited from earlier work

## O=c1ncn2nc(Sc3ccc(F)cc3F)ccc2c1-c1c(Cl)cccc1Cl [VX-745]
[1]
  whole blood IC50: 0.065 to 0.08 µg/mL
[2]; all groups through the study, two-way ANOVA, Bonferroni
  body weight, differences between groups: No statistically significant differences
[2]; group 2M (1.5 mg/kg), within two weeks of treatment initiation
  rats that died after treatment initiation: one
[2]; tMCAO rats, 1.5 and 4.5 mg/kg PO twice a day
  general clinical signs, differences between groups: no observed differences
[3]; Groups 2M (1.5 mg/kg) and 3M (4.5 mg/kg), PO twice a day
  body swing test (difference between left turn and right turn) versus vehicle control group 1M: statistically significant difference
[3]; particularly in the 4.5 mg/kg dose group
  body swing test, extent of recovery: near normalization
Cytokine signaling
  IC50 for inhibition of cytokine signaling relative to IC50 for cytokine production: half that for cytokine production
[4]
  mean blood concentration: approximately 75 ng/mL
[5]
  IL-1β production and signaling in vitro: inhibits IL-1β production and signaling in vitro
[6]
  forelimb placement test score versus vehicle control group 1M: Statistically significant differences
[7]
  stepping test (left forelimb), number of steps versus vehicle control group 1M: statistically significant difference
[8]
  neuroscore delta (change from Day 2 to Week 4 or Week 6) versus vehicle control group 1M: statistically significant difference
[8]; Weeks 4 and 6
  absolute neuroscore versus vehicle control group 1M: statistically significant difference
[9]
  drug concentrations in the brain versus in the blood: approximately two-fold
IL-1β
  IL-1β levels in the brain at study termination, between the groups: No statistically significant differences

## C[S+]([O-])c1ccc(-c2nc(-c3ccc(F)cc3)c(-c3ccncc3)[nH]2)cc1 (stereo not shown) [SB203850]
Animal models of stroke
  effect on recovery from neurologic deficit: no significant effect
